No end group written: not given here.
Assays:
LLC and GL261 tumors = test: Conserved motifs within phage peptides recovered by in vivo panning from both tumor models; design: species or system mice; details: for Frequency of Recovery of conserved sequence: share of phage peptides recovered from irradiated tumors that contain the sequence
Procedure: (§1) For in vivo panning, tumors were irradiated with 3 Gy and approximately 10^10 phage (prepared as described in Example 1) were administered by tail vein injection into each of the tumor bearing mice at 4 hours following irradiation. Tumors were recovered at one hour following injection and amplified in BL21 bacteria. Amplified phage were pooled and re-administered to a tumor-bearing mouse following tumor irradiation. The phage pool was sequentially administered to a total of 6 animals. As a control, wild type phage lacking synthetic peptide inserts were identically administered to a second experimental group of animals.
(§2) Following six rounds of in vivo panning, fifty recombinant phage peptides that bound within irradiated tumors were randomly selected for further analysis. The nucleic acid sequence encoding recombinant phage was amplified by PCR using primers set forth as SEQ ID NOs: 20-21 (available from Novagen Brand, a unit of EMD Biosciences, Inc., Madison, Wis.). An individual phage suspension was used as template. Amplified peptides were sequenced using an ABI PRISM® 377 sequencer (Applied Biosystems of Foster City, Calif., United States of America).
The amino acid sequences of all phage that were recovered from both tumors were studied in order to identify homologous sequences (Table 2). The most commonly recovered phage peptide had amino acid sequence HVGGSSV (SEQ ID NO: 1), and the second most common sequence was […] (SEQ ID NO: 2). The probability of recovering these peptide sequences from both tumor subtypes is 625/10^14 for each of the peptide sequences. The peptide sequence GSSV (SEQ ID NO: 9) was present in 58% of the phage recovered from tumors. Homology between peptides recovered from LLC and GL261 included 100% homology in […] (SEQ ID NO: 2) and 70% homology in RGSGSRV (SEQ ID NO.: 12). Of interest is a 6 amino acid homology spanning over 8 amino acids that include amino acids SXRGXGS (SEQ ID NO: 13), which was recovered from 28% of all phage in 2 tumor models (p<0.0001). The probability of having six identical amino acids by chance is 6^−24.

GL261 tumors [1] = test: TUNEL stain of intracranial GL261 glioblastoma tumors; type: in vivo, C57BL/6 mice
Procedure: The response of cancer cells within the intracranial glioblastoma tumor model, GL261, was also tested in mice. GL261 tumors were implanted into the brains of C57BL/6 mice. After tumor formation (seven days later), mice were treated with GLEEVEC®, 4 Gy or both GLEEVEC® and 4 Gy. Tumors were sectioned and assayed with TUNEL stain to identify apoptotic nuclei. […] The pharmacodynamic response (such as apoptosis) in tumors treated with GLEEVEC® correlated with tumor growth delay.

LLC tumors = test: In vivo panning of T7 phage peptide library: phage recovered from irradiated LLC tumors; design: species or system mice
Procedure: (§3) GL261 murine glioma cells and Lewis lung carcinoma (LLC) cells were implanted into the hind limb of C57BL/6 mice (see Hallahan et al., 1995b; Hallahan et al., 1998; Hallahan & Virudachalam, 1999).
as §1
(§4) To determine the titer of phage binding in a tumor or in normal tissue, recovered phage were amplified in BL21 bacteria. Bacteria were plated and the number of plaques present was counted. To determine the total phage output per organ, the number of plaque forming units (PFU) on each plate was divided by the volume of phage plated and the weight of each organ. Normal variation was observed as a 2-fold difference in PFU. In the present Example, background binding within tumor blood vessels was approximately 10^4 phage. Phage that bound to the vasculature within irradiated tumors show enrichment in the tumor relative to other organs and enrichment in the irradiated tumor relative to the control phage without DNA insert.
as §2

[2] = target: T1, GP-IIb/IIIa receptors on activated platelets (Homo sapiens, UniProt P05106+P08514); test: Clinical gamma camera/SPECT imaging of 99mTc-labeled bibapcitide in irradiated tumors; type: in vivo, patients
T1 construct: from tissue
T1 sequence (P08514 32-887 limits assumed): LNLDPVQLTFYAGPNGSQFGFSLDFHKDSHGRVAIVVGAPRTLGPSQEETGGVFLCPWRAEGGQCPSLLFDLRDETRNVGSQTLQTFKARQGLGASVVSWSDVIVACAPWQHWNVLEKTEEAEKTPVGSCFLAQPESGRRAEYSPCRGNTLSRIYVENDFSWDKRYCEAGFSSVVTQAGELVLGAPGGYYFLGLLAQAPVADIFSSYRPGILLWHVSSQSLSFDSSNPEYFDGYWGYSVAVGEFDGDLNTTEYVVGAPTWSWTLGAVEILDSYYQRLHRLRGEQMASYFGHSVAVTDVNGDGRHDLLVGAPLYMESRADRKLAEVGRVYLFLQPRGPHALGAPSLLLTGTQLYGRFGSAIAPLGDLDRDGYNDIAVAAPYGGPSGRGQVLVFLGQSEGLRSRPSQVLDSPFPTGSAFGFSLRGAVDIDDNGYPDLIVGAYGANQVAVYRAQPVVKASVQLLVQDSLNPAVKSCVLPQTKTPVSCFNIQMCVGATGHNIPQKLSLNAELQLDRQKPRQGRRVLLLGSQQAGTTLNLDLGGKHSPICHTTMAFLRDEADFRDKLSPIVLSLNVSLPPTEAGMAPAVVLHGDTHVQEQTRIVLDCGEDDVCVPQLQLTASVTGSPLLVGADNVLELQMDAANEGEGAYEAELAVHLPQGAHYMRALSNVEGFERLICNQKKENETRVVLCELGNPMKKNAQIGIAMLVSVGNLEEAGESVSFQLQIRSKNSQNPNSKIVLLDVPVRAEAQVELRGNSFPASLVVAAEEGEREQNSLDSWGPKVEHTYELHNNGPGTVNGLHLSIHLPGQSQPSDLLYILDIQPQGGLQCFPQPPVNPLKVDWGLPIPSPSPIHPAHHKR
T1 sequence (P08514 891-1039 partner limits assumed): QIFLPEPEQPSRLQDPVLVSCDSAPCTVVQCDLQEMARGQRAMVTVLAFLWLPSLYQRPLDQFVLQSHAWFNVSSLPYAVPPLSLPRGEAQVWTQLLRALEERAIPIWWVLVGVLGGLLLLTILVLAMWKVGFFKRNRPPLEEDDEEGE
T1 sequence (P05106 27-788): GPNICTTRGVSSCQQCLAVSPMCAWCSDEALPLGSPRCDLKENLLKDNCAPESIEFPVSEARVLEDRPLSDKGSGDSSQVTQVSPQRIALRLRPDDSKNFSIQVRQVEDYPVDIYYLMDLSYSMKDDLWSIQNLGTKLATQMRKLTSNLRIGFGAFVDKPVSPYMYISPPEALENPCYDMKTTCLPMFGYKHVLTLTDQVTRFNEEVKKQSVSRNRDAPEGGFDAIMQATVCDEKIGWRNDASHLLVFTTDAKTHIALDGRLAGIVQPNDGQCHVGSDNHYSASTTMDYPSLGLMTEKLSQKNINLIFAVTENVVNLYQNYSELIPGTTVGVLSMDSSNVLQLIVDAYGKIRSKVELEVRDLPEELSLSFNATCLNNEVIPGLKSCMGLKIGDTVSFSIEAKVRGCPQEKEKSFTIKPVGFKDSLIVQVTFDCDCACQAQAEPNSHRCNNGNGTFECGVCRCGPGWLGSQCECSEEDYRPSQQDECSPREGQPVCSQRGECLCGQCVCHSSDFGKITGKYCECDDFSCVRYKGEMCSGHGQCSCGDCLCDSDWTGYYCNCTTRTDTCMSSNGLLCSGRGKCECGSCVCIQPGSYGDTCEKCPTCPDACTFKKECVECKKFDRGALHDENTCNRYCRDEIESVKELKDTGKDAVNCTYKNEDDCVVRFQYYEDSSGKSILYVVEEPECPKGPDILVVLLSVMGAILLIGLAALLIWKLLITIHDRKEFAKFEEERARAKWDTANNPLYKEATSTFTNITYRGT
Procedure: Ligand Preparation and Administration. Bibapcitide (ACUTECT™, available from Diatide, Inc. of Londonderry, N.H., United States of America) is a synthetic peptide that binds to GP-IIb/IIIa receptors on activated platelets (Hawiger et al., 1989; Hawiger & Timmons, 1992). Bibapcitide was labeled with ^99mTc in accordance with a protocol provided by Diatide Inc.
Reconstituted ^99mTc-labeled bibapcitide was administered to patients at a dose of 100 μg of bibapcitide radiolabeled with 10 mCi of ^99mTc. […] Patients underwent gamma camera imaging prior to irradiation and 24 hours following irradiation.
Following planar image acquisition, those patients showing uptake in irradiated tumors underwent tomographic imaging using SPECT and repeat imaging at 24 hours. Patients showing no uptake on planer images during this 24-hour time frame had no further imaging.
Patients were treated with X-irradiation ranging from 4 to 18 MV photon using external beam linear accelerator at Vanderbilt University. Appropriate blocks, wedges, and bolus to deliver adequate dose to the planned target volume was utilized. The site of irradiation, treatment intent, and normal tissue considerations determined the radiation dosage and volume. When stereotactic radiosurgery was used, the dose was prescribed to the tumor periphery.
Image Analysis. Image acquisition consisted of both planar and single photon emission computed tomography (SPECT) studies. Planar studies were performed on a dual-head gamma camera (Millennium VG-Variable Geometry model available from General Electric Medical Systems of Milwaukee, Wis., United States of America) equipped with low energy high-resolution (LEUR) collimators. This type of collimator represents a compromise between sensitivity (photon counting efficiency) and image resolution. Planar nuclear medicine images were acquired with a 256×256 acquisition matrix (pixel size approximately 0.178 cm/pixel) for 10 minutes. In order to maximize collimator-gamma camera system sensitivity the source-to-detector surface distance was minimized to the extent that patient geometry allows. The spatial distribution of […] within the planar image was measured using region-of-interest (ROI) analysis. Two different size ROIs (5×5 pixel, and 15×15 pixel) was used in both the tumor and surrounding organs and tissues in the patient. The rationale for using ROIs with different dimensions is to be able to quantify image counts while at the same time isolating any possible influence of ROI size on the results. Tumor-to-background ratios were computed as the ratio of average counts in the tumor region divided by average counts in surrounding organs and tissues, each corrected for background. Background counts was determined based on ROI analysis of a separate planar acquisition performed in the absence of a radioactive source.
Three-dimensional nuclear medicine SPECT examinations were performed using the same dual-head gamma camera system. Each SPECT study comprised a 360 scan acquired with a step-and-shoot approach utilizing the following acquisition parameters: three increments between views, a 256×256×64 acquisition matrix, LEUR collimation and 60 seconds per view. […] SPECT tumor-to-background ratios were computed using quantitative ROI techniques identical to the planar studies. […]

[3] = test system: responding tumor blood vessels; test: Biotinylated peptide binding in tumor blood vessels, FITC-avidin fluorescent microscopy; type: in vivo, mice
Procedure: The amino acid sequence RGXGSXV (SEQ ID NO: 18) was found in 41% of phage recovered from treated LLC tumors. To determine the pattern of RGDGSSV (SEQ ID NO: 10) peptide binding within responding tumor blood vessels, biotinylated peptide was administered by tail vein injection. Tumors were implanted into both hind limbs of mice. The right tumor was irradiated according to Example 2, and the left served as an untreated internal negative control. Biotinylated peptide was administered by tail vein injection immediately prior to tumor irradiation.

[4] = test system: B16F0 melanoma, lung carcinoma and glioma tumor models; test: Binding of phage-encoded peptides in additional tumor models; type: in vivo; details: phage encoding the peptide
Text: The binding properties of phage encoding HVGGSSV (SEQ ID NO: 1), […] (SEQ ID NO: 2), […] (SEQ ID NO: 3), and SVGSRV (SEQ ID NO: 4) were additionally characterized in a B16F0 melanoma model.

GL261 tumors [5] = test: In vivo panning of T7 phage peptide library: phage recovered from irradiated GL261 tumors; design: species or system mice; details: Experiment A, 3 Gy; for Phage Recovered from GL261 tumors: number of sequenced phage after six rounds; for Phage Recovered from GL261 tumors (Frequency): six rounds
Procedure: as §3, §1, §4, §2

[6] = test system: tumor vascular endothelium; details: Geng et al., 2001; Lu et al., 2004; cited from earlier work
[7] = Experiment B, number of sequenced phage
[8] = Experiment A, number of sequenced phage after six rounds, 3 Gy

For “GSRV (conserved subsequence) [conserved motif within peptides identified by in vivo panning]”, the “Frequency of Recovery of conserved sequence” value (LLC and GL261 tumors) was 6%.
In the case of “GSXV [conserved motif within peptides identified by in vivo panning]”, the “Frequency of Recovery of conserved sequence” value (LLC and GL261 tumors) is reported as 80%.
With `Cc1ccc(NC(=O)c2ccc(CN3CCN(C)CC3)cc2)cc1Nc1nccc(-c2cccnc2)n1` [GLEEVEC®] the “Glioma nuclei stained positive with TUNEL stain” value (GL261 tumors [1]; TKI alone) was 5% and the “Apoptotic nuclei (TUNEL)” value (GL261 tumors [1]; TKI followed by irradiation (4 Gy)) was 18%.
In the case of “SKEK (Peptide that binds to LLC and/or GL261 tumors) [peptide isolated by in vivo panning of a phage library]”, the “Phage Recovered from LLC tumors (Frequency)” value (LLC tumors; Experiment B) is reported as “(7%)” and the “Phage Recovered from LLC tumors” value (LLC tumors; [7]) is reported as 1.
For “Bibapcitide [^99mTc-labeled bibapcitide]”, the Tumor binding ([2]; administered immediately prior to radiation, 10 Gy or more) was 4 of 4, the Localization to tumor ([2]; administered within one hour following radiation) was “failed to show localization” and the Specificity of binding ([2]; clinical study, general finding) was “non-specific binding”. For the same molecule, the “Binding to responding tumors in dose de-escalation study” value ([2]; radiation dose reduced to 5 Gy) was “not sufficient” and the “Binding in second neoplasms not treated with radiation” value ([2]; two patients, non-responding tumors) was “not observed”.
In the case of “SXRGXGS [conserved motif within peptides identified by in vivo panning]”, the “Frequency of Recovery of conserved sequence” value (LLC and GL261 tumors) is reported as 28%.
For “NSV (conserved sequence) [N-terminal NSV, conserved N-terminal motif, N encoded by the vector]”, the “Frequency of Recovery of conserved sequence” value (LLC and GL261 tumors) was 22%.
With “SRKQGGTEV (Peptide that binds to LLC and/or GL261 tumors) [peptide isolated by in vivo panning of a phage library]” the “Phage Recovered from LLC tumors (Frequency)” value (LLC tumors; Experiment B) was “(7%)” and the “Phage Recovered from LLC tumors” value (LLC tumors; [7]) was 1.
In the case of “RGXGSXV [conserved motif in phage recovered from treated LLC tumors]”, the “Frequency of sequence in phage recovered from treated LLC tumors” value (LLC tumors; treated LLC tumors) is reported as 41%.
For “GSSV (conserved subsequence) [conserved motif within peptides identified by in vivo panning]”, the “Phage recovered from irradiated tumors” value (LLC and GL261 tumors; phage with peptide insert comprising the subsequence, no phage with wild type) was 22-40 of 10^6 injected phage and the “Frequency of Recovery of conserved sequence” value (LLC and GL261 tumors) was 58%.
With “NXVG [N-terminal NXVG, conserved N-terminal motif, N encoded by the vector]” the “Frequency of Recovery of conserved sequence” value (LLC and GL261 tumors) was 34%.
With “RGDGSSV (also: biotin, site not given here) [tested as biotinylated peptide]” the “Peptide binding in irradiated (responding) tumor” value ([3]; biotinylated peptide by tail vein immediately prior to irradiation, right tumor irradiated) was “accumulation throughout the lumen of responding tumors”, the “Peptide binding in untreated control tumor” value ([3]; biotinylated peptide by tail vein, left tumor untreated internal control) was “near absence of binding” and the “Frequency of Recovery of conserved sequence” value (LLC and GL261 tumors) was 28%.
With “SGRKVGSGSSV (Peptide that binds to LLC and/or GL261 tumors) [peptide isolated by in vivo panning of a phage library]” the “Phage Recovered from LLC tumors (Frequency)” value (LLC tumors; Experiment B) was “(50%)” and the “Phage Recovered from LLC tumors” value (LLC tumors; [7]) was 7.
For “SVRGSGSGV (Peptide that binds to LLC and/or GL261 tumors) [peptide isolated by in vivo panning of a phage library]”, the “Tumor models within which the phage-encoded peptide bound” value [4] was “bound within glioma and melanoma”, the “Phage Recovered from GL261 tumors” value (GL261 tumors [5]) was 0 and the “Phage Recovered from GL261 tumors (Frequency)” value (GL261 tumors [5]) was “(0%)”. For the same molecule, the “Phage Recovered from LLC tumors” value (LLC tumors; [8]) was 7 and the “Phage Recovered from LLC tumors (Frequency)” value (LLC tumors; Experiment A, six rounds, 3 Gy) was “(28%)”.
With “SVVRDGSEV (Peptide that binds to LLC and/or GL261 tumors) [peptide isolated by in vivo panning of a phage library]” the “Phage Recovered from LLC tumors (Frequency)” value (LLC tumors; Experiment B) was “(21%)” and the “Phage Recovered from LLC tumors” value (LLC tumors; [7]) was 3.
For `Cc1[nH]c(/C=C2\C(=O)Nc3ccccc32)c(C)c1CCC(=O)O` [SU6668], the “Apoptosis within tumor vascular endothelium” value [6] is given as “induced apoptosis within tumor vascular endothelium”.
For “NSXR [N-terminal NSXR, conserved N-terminal motif, N encoded by the vector]”, the “Frequency of Recovery of conserved sequence” value (LLC and GL261 tumors) was 39%.
In the case of `Cc1cc(C)c(/C=C2\C(=O)Nc3ccccc32)[nH]1` [SU5416], the “Apoptosis within tumor vascular endothelium” value [6] is listed as “induced apoptosis within tumor vascular endothelium”.
For “SVGSRV (Peptide that binds to LLC and/or GL261 tumors) [peptide isolated by in vivo panning of a phage library]”, the “Tumor models within which the phage-encoded peptide bound” value [4] was “bound within lung carcinoma and glioma”, the “Phage Recovered from GL261 tumors” value (GL261 tumors [5]) was 3 and the “Phage Recovered from GL261 tumors (Frequency)” value (GL261 tumors [5]) was “(12%)”. For the same molecule, the “Phage Recovered from LLC tumors” value (LLC tumors; [8]) was 1 and the “Phage Recovered from LLC tumors (Frequency)” value (LLC tumors; Experiment A, six rounds, 3 Gy) was “(4%)”.
